# Results taken from US6878722B2, “Substituted cycloalkyl P1′ hepatitis C virus inhibitors” (Bristol-Myers Squibb Company, priority 2002, dated 2005).
# Like-named read-outs stand apart in the source and are kept apart here.
# Tests used:
# [1] = system: HCV replicon in Huh7 cells; test: HCV replicon cell-based assay (FRET); conditions: Hepatitis C virus
# In short: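 Huh7 cells stably carrying a genotype 1b HCV replicon (IRES-neo-EMCV-IRES-NS3-NS5B) were treated with compound for 4 days at 37 °C in 0.5% DMSO final. Lysates containing 10 μM FRET peptide RET S1 were read kinetically at 340/490 nm to give NS3 protease activity, from which EC50 was derived.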
# [2] = target: T1, human sputum elastase (HS) (Homo sapiens, UniProt P08246); test: Specificity assay, human sputum elastase; type: biochemical; conditions: 2 hr pre-incubation
# T1 construct: purchased Sigma
# T1 sequence (P08246 30-267): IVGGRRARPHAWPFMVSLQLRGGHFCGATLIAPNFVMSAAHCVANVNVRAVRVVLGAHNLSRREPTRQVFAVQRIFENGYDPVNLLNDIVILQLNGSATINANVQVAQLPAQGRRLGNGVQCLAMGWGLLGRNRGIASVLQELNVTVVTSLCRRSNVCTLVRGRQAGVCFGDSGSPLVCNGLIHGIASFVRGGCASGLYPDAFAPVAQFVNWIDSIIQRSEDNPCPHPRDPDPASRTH
# [3] = target: T2, porcine pancreatic elastase (PPE) (Sus scrofa, UniProt P00772); test: Specificity assay, porcine pancreatic elastase; type: biochemical; conditions: 2 hr pre-incubation
# T2 construct: purchased Sigma
# Protocol: (§1) The specificities of compounds of the present invention were determined against a variety of serine proteases: human sputum elastase (HS), porcine pancreatic elastase (PPE) and human pancreatic chymotrypsin and one cysteine protease: human liver cathepsin B. In all cases a 96-well plate format protocol using colorimetric p-nitroaniline (pNA) substrate specific for each enzyme was used as described previously (Patent WO 00/09543) with some modifications to the serine protease assays. All enzymes were purchased from Sigma while the substrates were from Bachem.
# (§2) Each assay included a 2 hr enzyme-inhibitor pre-incubation at room temperature followed by addition of substrate and hydrolysis to ˜30% conversion as measured on a Spectramax Pro microplate reader. Compound concentrations varied from 100 to 0.4 μM depending on their potency. […]
# (§3) The percentage of inhibition was calculated using the formula: [1−((UVinh−UVblank)/(UVctl−UVblank))]×100 […]
# human liver cathepsin B = target: T3, human liver cathepsin B (Homo sapiens, UniProt P07858); test: Specificity assay, cathepsin B; type: biochemical; conditions: 2 hr pre-incubation
# T3 construct: purchased Sigma
# Protocol: as §1, §2, §3
# T2 sequence (P00772 27-266): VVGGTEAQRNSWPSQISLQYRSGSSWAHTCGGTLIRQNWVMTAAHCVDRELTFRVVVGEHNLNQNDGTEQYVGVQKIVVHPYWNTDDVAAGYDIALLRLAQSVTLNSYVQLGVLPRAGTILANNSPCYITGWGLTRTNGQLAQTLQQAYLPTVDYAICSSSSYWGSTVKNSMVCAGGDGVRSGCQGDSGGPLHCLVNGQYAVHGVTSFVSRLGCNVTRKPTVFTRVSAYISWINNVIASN
compound,measurement,setting,value
"C=CC1C[C@]1(NC(=O)[C@@H]1C[C@@H](Oc2cc(-c3ccccc3)nc3cc(OC)ccc23)CN1C(=O)[C@@H](NC(=O)OC(C)(C)C)C(C)(C)C)C(=O)NS(=O)(=O)C1(C)CC1 (stereo in doubt) [Compound 1, (1-{4-(7-Methoxy-2-phenylquinolin-4-yloxy)-2-[1-(1-methylcyclopropanesulfonylaminocarbonyl)-2-vinylcyclopropylcarbamoyl]pyrrolidine-1-carbonyl}-2,2-dimethylpropyl)carbamic acid tert-butyl ester]",EC50,"[1]; Huh-7, 96 h, Huh7 cells, 4 days, read-out: EC50 value in the replicon assay",0.0139 µM
same,EC50,"[1]; Huh-7, HCV replicon, read-out: EC50 range",< 0.05 µM
same,IC50,[2],43 µM
same,IC50,[3],> 100 µM
same,IC50,human liver cathepsin B,> 100 µM
